Results published in ChEMBL document CHEMBL1201862, “PubChem BioAssay data set” (2004).
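Method: 48-hour compound exposure of cells in 96-well plates, five concentrations, linear interpolation of endpoints. The concentration for 50% growth inhibition is given as GI50.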 The source made the active and inactive calls. Rule as the data show it: active = GI50 up to about 1.1 µM and inactive = higher.

Key:
Assay in all cases: NCI-60 cell line screen, 48 h
EKVX = system: EKVX
HL-60 = system: HL-60
SF-268 = system: SF-268
SNB-75 = system: SNB-75
UACC-257 = system: UACC-257
SK-OV-3 = system: SK-OV-3
OVCAR-4 = system: OVCAR-4
A498 = system: A498
LOX IMVI = system: LOX IMVI
SF-539 = system: SF-539
UO-31 = system: UO-31
OVCAR-3 = system: OVCAR-3
SF-295 = system: SF-295
SNB-19 = system: SNB-19
A549 = system: A549
K562 = system: K562
NCI-H226 = system: NCI-H226

In the case of `CCN(CC)CC(=O)N1CCc2c([nH]c3ccccc23)C1c1cccnc1` (stereo not given), the GI50 (EKVX) was > 100 µM (inactive), the GI50 (HL-60) was > 100 µM (inactive) and the GI50 (SF-268) was > 100 µM (inactive). The GI50 (SNB-75) was 73.6 µM (inactive), the GI50 (UACC-257) was > 100 µM (inactive) and the GI50 (SK-OV-3) was > 100 µM (inactive). For the same compound, the GI50 (OVCAR-4) was > 100 µM (inactive), the GI50 (A498) was > 100 µM (inactive) and the GI50 (LOX IMVI) was > 100 µM (inactive). The GI50 (SF-539) was > 100 µM (inactive), the GI50 (UO-31) was 26.9 µM (inactive) and the GI50 (OVCAR-3) was > 100 µM (inactive). The GI50 (SF-295) was > 100 µM (inactive), the GI50 (SNB-19) was > 100 µM (inactive) and the GI50 (A549) was > 100 µM (inactive). The GI50 (K562) was > 100 µM (inactive).
For `COc1nc(NC2OC(COC(C)=O)C(OC(C)=O)C(OC(C)=O)C2OC(C)=O)c2c(OC(C)=O)cc(=O)oc2n1` (stereo not given), the GI50 (EKVX) was > 100 µM (inactive), the GI50 (HL-60) was > 100 µM (inactive) and the GI50 (SNB-75) was > 100 µM (inactive). The GI50 (UACC-257) was > 100 µM (inactive), the GI50 (SK-OV-3) was > 100 µM (inactive) and the GI50 (OVCAR-4) was > 100 µM (inactive). The GI50 (A498) was 15.9 µM (inactive), the GI50 (LOX IMVI) was > 100 µM (inactive) and the GI50 (SF-539) was > 100 µM (inactive). For the same compound, the GI50 (UO-31) was > 100 µM (inactive), the GI50 (OVCAR-3) was > 100 µM (inactive) and the GI50 (SF-295) was > 100 µM (inactive). For the same compound, the GI50 (SNB-19) was > 100 µM (inactive), the GI50 (A549) was > 100 µM (inactive) and the GI50 (K562) was > 100 µM (inactive). For the same compound, the GI50 (NCI-H226) was > 100 µM (inactive).
In the case of `CN/C=C(\C(=O)c1ccc(OC)c(OC)c1)c1ccc(OC)cc1`, the GI50 (EKVX) was 27.4 µM (inactive), the GI50 (HL-60) was 11.3 µM (inactive) and the GI50 (SF-268) was 24.2 µM (inactive). For the same compound, the GI50 (SNB-75) was 30.1 µM (inactive), the GI50 (UACC-257) was 10.7 µM (inactive) and the GI50 (SK-OV-3) was 45.9 µM (inactive). For the same compound, the GI50 (OVCAR-4) was 24.5 µM (inactive), the GI50 (A498) was 13.3 µM (inactive) and the GI50 (LOX IMVI) was 14.2 µM (inactive). The GI50 (SF-539) was 1.25 µM (inactive), the GI50 (UO-31) was 12.2 µM (inactive) and the GI50 (SF-295) was 40.1 µM (inactive). For the same compound, the GI50 (SNB-19) was 17.5 µM (inactive), the GI50 (A549) was 34.6 µM (inactive) and the GI50 (K562) was 6.43 µM (inactive). For the same compound, the GI50 (NCI-H226) was 11.3 µM (inactive).
With `CCN(CC)CCCN1CCc2c([nH]c3ccccc23)C1c1cccnc1` (stereo not given) the GI50 (EKVX) was > 100 µM (inactive), the GI50 (HL-60) was > 100 µM (inactive) and the GI50 (SNB-75) was > 100 µM (inactive). For the same compound, the GI50 (UACC-257) was 42.8 µM (inactive), the GI50 (SK-OV-3) was > 100 µM (inactive) and the GI50 (OVCAR-4) was 96.8 µM (inactive). The GI50 (A498) was > 100 µM (inactive), the GI50 (LOX IMVI) was > 100 µM (inactive) and the GI50 (SF-539) was > 100 µM (inactive). The GI50 (UO-31) was 83.9 µM (inactive), the GI50 (OVCAR-3) was 88.3 µM (inactive) and the GI50 (SF-295) was > 100 µM (inactive). For the same compound, the GI50 (SNB-19) was > 100 µM (inactive), the GI50 (A549) was > 100 µM (inactive) and the GI50 (K562) was > 100 µM (inactive). For the same compound, the GI50 (NCI-H226) was > 100 µM (inactive).
With `COc1cc([C@@H]2c3cc4c(cc3[C@@H](NCc3cccc(F)c3)C3COC(=O)[C@@H]32)OCO4)cc(OC)c1O` (stereo not given in full) the GI50 (EKVX) was 12.4 µM (inactive), the GI50 (HL-60) was 1.19 µM (inactive) and the GI50 (SF-268) was 5.92 µM (inactive). The GI50 (SNB-75) was 1.95 µM (inactive), the GI50 (UACC-257) was 10.8 µM (inactive) and the GI50 (SK-OV-3) was 4.19 µM (inactive). The GI50 (OVCAR-4) was 30.6 µM (inactive), the GI50 (A498) was 2.68 µM (inactive) and the GI50 (LOX IMVI) was 3.58 µM (inactive). For the same compound, the GI50 (SF-539) was 2.52 µM (inactive), the GI50 (UO-31) was 5.57 µM (inactive) and the GI50 (OVCAR-3) was 12.2 µM (inactive). For the same compound, the GI50 (SF-295) was 2.24 µM (inactive), the GI50 (SNB-19) was 2.81 µM (inactive) and the GI50 (A549) was 1.17 µM (inactive). The GI50 (K562) was 6.49 µM (inactive) and the GI50 (NCI-H226) was 1.03 µM (active).
In the case of `O=c1c2c(-c3ccccc3)c3ccccc3nc2cnn1-c1ccccc1`, the GI50 (EKVX) was > 100 µM (inactive), the GI50 (HL-60) was 29.4 µM (inactive) and the GI50 (SF-268) was > 100 µM (inactive). The GI50 (SNB-75) was > 100 µM (inactive), the GI50 (UACC-257) was > 100 µM (inactive) and the GI50 (SK-OV-3) was > 100 µM (inactive). The GI50 (OVCAR-4) was > 100 µM (inactive), the GI50 (A498) was > 100 µM (inactive) and the GI50 (LOX IMVI) was > 100 µM (inactive). For the same compound, the GI50 (SF-539) was > 100 µM (inactive), the GI50 (UO-31) was > 100 µM (inactive) and the GI50 (OVCAR-3) was 55.5 µM (inactive). The GI50 (SF-295) was > 100 µM (inactive), the GI50 (SNB-19) was > 100 µM (inactive) and the GI50 (A549) was > 100 µM (inactive). For the same compound, the GI50 (K562) was 42.3 µM (inactive) and the GI50 (NCI-H226) was > 100 µM (inactive).
For `COc1cc(C[S+]2CCCC2)c(SC)cc1C[S+]1CCCC1`, the GI50 (EKVX) was > 100 µM (inactive), the GI50 (HL-60) was > 100 µM (inactive) and the GI50 (SF-268) was > 100 µM (inactive). For the same compound, the GI50 (SNB-75) was 47.4 µM (inactive), the GI50 (UACC-257) was > 100 µM (inactive) and the GI50 (SK-OV-3) was > 100 µM (inactive). For the same compound, the GI50 (OVCAR-4) was > 100 µM (inactive), the GI50 (A498) was > 100 µM (inactive) and the GI50 (LOX IMVI) was > 100 µM (inactive). The GI50 (SF-539) was > 100 µM (inactive), the GI50 (UO-31) was > 100 µM (inactive) and the GI50 (OVCAR-3) was > 100 µM (inactive). The GI50 (SF-295) was > 100 µM (inactive), the GI50 (A549) was > 100 µM (inactive) and the GI50 (K562) was > 100 µM (inactive). For the same compound, the GI50 (NCI-H226) was > 100 µM (inactive).
In the case of `CC(=O)Oc1ccccc1` [ACETIC ACID PHENYL ESTER], the GI50 (EKVX) was > 100 µM (inactive), the GI50 (HL-60) was > 100 µM (inactive) and the GI50 (SF-268) was > 100 µM (inactive). For the same compound, the GI50 (SNB-75) was > 100 µM (inactive), the GI50 (UACC-257) was > 100 µM (inactive) and the GI50 (OVCAR-4) was > 100 µM (inactive). For the same compound, the GI50 (A498) was > 100 µM (inactive), the GI50 (LOX IMVI) was > 100 µM (inactive) and the GI50 (SF-539) was > 100 µM (inactive). The GI50 (UO-31) was > 100 µM (inactive), the GI50 (OVCAR-3) was > 100 µM (inactive) and the GI50 (SF-295) was > 100 µM (inactive). The GI50 (SNB-19) was > 100 µM (inactive), the GI50 (A549) was > 100 µM (inactive) and the GI50 (K562) was > 100 µM (inactive). For the same compound, the GI50 (NCI-H226) was > 100 µM (inactive).
